Test: xn = mol fraction of the nth substance listed
Settings: 101 kPa, Liquid, Vibrating tube method

CCCCCCCCC [nonane] + CCCCCCCC
mass density [kg/m3]
Settings	x2 = 0.1017	x2 = 0.2023	x2 = 0.3016	x2 = 0.4	x2 = 0.4987	x2 = 0.6006	x2 = 0.7002	x2 = 0.7986	x2 = 0.8989
273.15 K	731.51	730.03	728.78	727.43	725.78	724.52	722.97	721.5	719.99
278.15 K	727.69	726.2	724.94	723.57	721.91	720.65	719.08	717.59	716.07
283.15 K	723.84	722.35	721.07	719.7	718.01	716.75	715.16	713.66	712.12
288.15 K	719.99	718.48	717.19	715.8	714.11	712.83	711.22	709.71	708.16
293.15 K	716.12	714.6	713.29	711.9	710.18	708.9	707.27	705.75	704.18
298.15 K	712.24	710.7	709.38	707.97	706.24	704.95	703.31	701.76	700.18
303.15 K	708.34	706.79	705.46	704.03	702.28	700.97	699.32	697.75	696.15
308.15 K	704.41	702.86	701.51	700.07	698.3	696.98	695.31	693.73	692.11
313.15 K	700.48	698.9	697.54	696.08	694.3	692.97	691.28	689.68	688.04
318.15 K	696.52	694.93	693.55	692.08	690.27	688.92	687.22	685.6	683.95
323.15 K	692.53	690.93	689.53	688.05	686.22	684.87	683.14	681.5	679.83
328.15 K	688.53	686.91	685.49	683.99	682.15	680.78	679.03	677.37	675.69
333.15 K	684.5	682.86	681.43	679.91	678.05	676.66	674.89	673.22	671.51
338.15 K	680.44	678.78	677.34	675.8	673.91	672.5	670.73	669.03	667.3
343.15 K	676.36	674.68	673.22	671.66	669.75	668.33	666.53	664.81	663.06
348.15 K	672.25	670.55	669.07	667.5	665.56	664.12	662.3	660.56	658.78
353.15 K	668.11	666.39	664.88	663.29	661.33	659.87	658.02	656.27	654.47
358.15 K	663.93	662.18	660.67	659.05	657.07	655.6	653.72	651.94	650.1
363.15 K	659.72	657.95	656.41	654.78	652.77	651.27	649.36	647.56	645.72

Source: the NIST ThermoML archive (doi:10.1021/je200373q)
